The values that follow come from patent US20250170248A1, “SMARCA DEGRADERS AND USES THEREOF” (Kymera Therapeutics, Inc., priority 2021, published 2025).

By Dmax is commonly meant the greatest extent of degradation seen. The term DC50 denotes the concentration giving 50% degradation.

Format in all cases: cell-based
The target in experiment [1] is T1, SMARCA2 (Homo sapiens, UniProt P51531). As to the kind of experiment: MSD SMARCA2 degradation in A549 cell line. The following applies: 24 h; for Dmax: A549, A549 cells; for DC50: A549 cells, read-out: SMARCA2 MSD A549 degradation 24 h: Average external-Abs DC50. In short, it runs like this:
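A549 cells treated 24 h with compound, 3-fold series from 1000 nM. Lysates captured on MSD plates and SMARCA2 quantified with anti-SMARCA2 and SULFO-TAG secondary antibodies (electrochemiluminescence). DC50 and Dmax (% degradation at 24 h) reported as letter bins.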

The target in a further experiment is T2, SMARCA4 (Homo sapiens, UniProt P51532).
T2 construct: SMARCA2/SMARCA4 protein degradation selectivity in MV4-11 cells; endogenous in cells; host or cells: MV4-11
As to the kind of experiment: SMARCA4 Western blot degradation in MV4-11 cells. As to conditions: 24 h; for Dmax: MV4-11, MV4-11 cells, read-out: SMARCA4 MSD MV411 degradation 24 h: average Dmax %; for DC50: MV4-11 cells, read-out: SMARCA4 MSD MV411 degradation 24 h: Mean external-Abs DC50. In short, it runs like this:
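24 h compound exposure, MV4-11; RIPA lysates → SDS-PAGE → NC membrane; anti-SMARCA2/BRM, anti-BRG1, β-actin loading control; LI-COR fluorescence read. DC50 and Dmax at 24 h reported as letter bins.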

Experiment [2] deals with T1, SMARCA2. As to the kind of experiment: SMARCA2 Western blot degradation in MV4-11 cells. Also noted: SMARCA2/SMARCA4 protein degradation selectivity in MV4-11 cells; endogenous in cells; host or cells: MV4-11. The following applies: for Dmax: MV4-11, MV4-11 cells, read-out: SMARCA2 MSD MV411 degradation 24 h: average Dmax %; for Dmax / DC50: 24 h; for DC50 / Selectivity in MV411: MV4-11 cells; for DC50: read-out: SMARCA2 MSD MV411 degradation 24 h: Mean external-Abs DC50; for Selectivity in MV411: SMARCA2/4 selectivity. A general note: Immunoblotting shows a protein as a band on a membrane.

T2 sequence (P51532 whole entry): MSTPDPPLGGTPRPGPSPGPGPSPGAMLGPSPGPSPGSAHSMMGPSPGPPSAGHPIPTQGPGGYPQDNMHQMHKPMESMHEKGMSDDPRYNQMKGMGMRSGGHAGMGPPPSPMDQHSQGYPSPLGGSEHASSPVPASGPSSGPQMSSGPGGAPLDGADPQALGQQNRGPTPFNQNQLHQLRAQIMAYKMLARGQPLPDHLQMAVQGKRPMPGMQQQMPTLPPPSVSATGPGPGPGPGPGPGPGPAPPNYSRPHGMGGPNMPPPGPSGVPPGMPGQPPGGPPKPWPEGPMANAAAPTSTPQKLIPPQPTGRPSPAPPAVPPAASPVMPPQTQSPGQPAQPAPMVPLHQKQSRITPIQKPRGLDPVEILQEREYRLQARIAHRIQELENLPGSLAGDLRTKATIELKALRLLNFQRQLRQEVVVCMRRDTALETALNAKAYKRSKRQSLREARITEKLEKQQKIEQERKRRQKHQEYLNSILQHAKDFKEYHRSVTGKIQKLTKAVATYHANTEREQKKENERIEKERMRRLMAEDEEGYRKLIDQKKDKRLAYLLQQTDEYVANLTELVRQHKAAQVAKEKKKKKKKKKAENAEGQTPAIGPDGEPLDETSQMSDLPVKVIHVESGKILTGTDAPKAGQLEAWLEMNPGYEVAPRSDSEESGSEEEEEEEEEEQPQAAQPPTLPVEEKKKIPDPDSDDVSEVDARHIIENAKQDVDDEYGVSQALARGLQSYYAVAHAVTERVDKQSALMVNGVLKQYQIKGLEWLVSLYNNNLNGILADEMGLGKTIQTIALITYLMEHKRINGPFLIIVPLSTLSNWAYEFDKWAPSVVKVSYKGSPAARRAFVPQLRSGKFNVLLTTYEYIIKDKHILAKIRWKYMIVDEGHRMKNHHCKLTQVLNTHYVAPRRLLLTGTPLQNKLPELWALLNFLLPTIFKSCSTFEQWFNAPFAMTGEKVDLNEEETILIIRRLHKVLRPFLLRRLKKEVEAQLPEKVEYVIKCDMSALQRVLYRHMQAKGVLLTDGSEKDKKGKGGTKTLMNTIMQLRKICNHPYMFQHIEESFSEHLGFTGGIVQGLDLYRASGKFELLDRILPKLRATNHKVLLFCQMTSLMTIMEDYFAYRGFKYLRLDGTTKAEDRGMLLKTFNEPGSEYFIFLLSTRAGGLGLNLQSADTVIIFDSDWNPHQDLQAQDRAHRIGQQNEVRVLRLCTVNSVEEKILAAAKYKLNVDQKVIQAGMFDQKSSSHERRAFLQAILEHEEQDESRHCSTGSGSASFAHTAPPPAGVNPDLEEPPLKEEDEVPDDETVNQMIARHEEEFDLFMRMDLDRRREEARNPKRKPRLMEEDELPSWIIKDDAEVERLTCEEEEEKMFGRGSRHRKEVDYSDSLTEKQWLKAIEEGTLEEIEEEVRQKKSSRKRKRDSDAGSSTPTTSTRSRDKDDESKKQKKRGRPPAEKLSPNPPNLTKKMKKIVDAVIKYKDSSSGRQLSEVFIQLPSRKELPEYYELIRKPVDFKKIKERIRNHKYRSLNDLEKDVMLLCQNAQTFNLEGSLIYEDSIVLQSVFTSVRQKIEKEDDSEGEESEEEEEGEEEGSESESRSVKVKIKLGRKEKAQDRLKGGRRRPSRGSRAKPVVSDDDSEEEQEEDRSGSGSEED
T1 sequence (P51531 whole entry): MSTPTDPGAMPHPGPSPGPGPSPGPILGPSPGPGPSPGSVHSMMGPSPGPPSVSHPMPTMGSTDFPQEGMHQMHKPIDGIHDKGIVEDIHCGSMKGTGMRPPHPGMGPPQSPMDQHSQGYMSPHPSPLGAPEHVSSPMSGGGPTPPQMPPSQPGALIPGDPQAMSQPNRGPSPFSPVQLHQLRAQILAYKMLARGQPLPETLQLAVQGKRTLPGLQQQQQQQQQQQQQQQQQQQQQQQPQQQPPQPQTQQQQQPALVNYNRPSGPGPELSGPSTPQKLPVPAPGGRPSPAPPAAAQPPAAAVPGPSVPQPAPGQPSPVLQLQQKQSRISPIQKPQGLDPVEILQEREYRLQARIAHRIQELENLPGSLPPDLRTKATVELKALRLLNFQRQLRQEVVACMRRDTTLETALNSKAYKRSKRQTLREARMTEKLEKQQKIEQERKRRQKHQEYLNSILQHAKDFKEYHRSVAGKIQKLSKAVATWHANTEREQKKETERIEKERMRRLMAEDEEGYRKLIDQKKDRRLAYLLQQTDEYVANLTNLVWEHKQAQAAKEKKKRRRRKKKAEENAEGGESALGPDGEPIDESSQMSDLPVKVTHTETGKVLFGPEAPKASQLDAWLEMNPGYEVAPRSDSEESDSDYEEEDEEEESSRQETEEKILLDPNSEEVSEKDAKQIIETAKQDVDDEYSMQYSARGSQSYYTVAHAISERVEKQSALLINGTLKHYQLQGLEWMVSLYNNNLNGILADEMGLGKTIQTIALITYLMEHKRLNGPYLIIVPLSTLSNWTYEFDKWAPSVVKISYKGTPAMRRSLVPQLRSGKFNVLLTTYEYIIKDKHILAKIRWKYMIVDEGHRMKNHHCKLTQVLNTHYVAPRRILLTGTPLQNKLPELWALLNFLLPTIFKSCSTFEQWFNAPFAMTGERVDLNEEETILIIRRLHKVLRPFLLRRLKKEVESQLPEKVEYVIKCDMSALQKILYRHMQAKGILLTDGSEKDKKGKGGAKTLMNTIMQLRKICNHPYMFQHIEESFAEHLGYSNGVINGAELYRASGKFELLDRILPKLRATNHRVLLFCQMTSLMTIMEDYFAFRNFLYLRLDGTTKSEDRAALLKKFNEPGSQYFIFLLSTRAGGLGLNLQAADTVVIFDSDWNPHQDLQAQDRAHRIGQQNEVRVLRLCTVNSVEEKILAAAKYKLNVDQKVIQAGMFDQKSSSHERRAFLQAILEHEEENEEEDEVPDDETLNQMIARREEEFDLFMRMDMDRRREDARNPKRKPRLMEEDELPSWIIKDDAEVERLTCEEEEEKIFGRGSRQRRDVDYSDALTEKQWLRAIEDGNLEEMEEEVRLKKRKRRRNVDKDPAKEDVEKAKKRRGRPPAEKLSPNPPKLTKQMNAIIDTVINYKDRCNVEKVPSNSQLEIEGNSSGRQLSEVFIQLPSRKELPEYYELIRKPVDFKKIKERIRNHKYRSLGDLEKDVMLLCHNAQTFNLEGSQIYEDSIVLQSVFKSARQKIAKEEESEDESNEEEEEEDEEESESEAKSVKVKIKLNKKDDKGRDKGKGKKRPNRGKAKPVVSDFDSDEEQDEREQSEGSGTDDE

As to `C#Cc1ccc(CNC(=O)[C@@H]2C[C@@H](O)CN2C(=O)[C@@H](NC(=O)N2CCO[C@@H](CN3CCC(N4CCC(N5CCN6c7cc(-c8ccccc8O)nnc7NC[C@H]6C5)CC4)CC3)C2)C(C)(C)C)cc1` [I-218], at SMARCA2 [1], the Dmax fell in the range of 50 to 70% and the DC50 is above 100 nM. Moreover, on SMARCA4, the Dmax was below 50% and the DC50 was above 100 nM. At SMARCA2 [2], the Dmax was below 50%, the DC50 was above 100 nM and the “Selectivity in MV411” value was “C (C (10-100 fold))”.

With `Cc1ncsc1-c1ccc(CNC(=O)[C@@H]2C[C@@H](O)CN2C(=O)[C@@H](NC(=O)[C@H]2CC3(CC[C@H](N4CCN(c5cnc(N6CCc7[nH]c8nnc(-c9ccccc9O)cc8c7[C@H]6C)nc5)CC4)CC3)C2)C(C)(C)C)cc1` (single isomer, unassigned) [I-78], at SMARCA2 [1], the Dmax is above 90% and the DC50 fell in the range of 10 to 50 nM. Also, at SMARCA4, the Dmax is below 50% and the DC50 is above 100 nM. Besides, on SMARCA2 [2], the Dmax fell in the range of 70 to 90%, the half-maximal degradation concentration (DC50) lay within 10 to 100 nM and the “Selectivity in MV411” value is listed as “B (B (>100-500 fold))”.

On to `C#Cc1ccc(CNC(=O)[C@@H]2C[C@@H](O)CN2C(=O)[C@@H](NC(=O)N2CC3(CC(N4CCC(c5cnc(N6CCc7[nH]c8nnc(-c9ccccc9O)cc8c7[C@H]6C)nc5)CC4)C3)C2)C(C)(C)CCN2CCN[C@@H](C(=O)O)C2)cc1` [I-342], for which, on SMARCA2 [1], the greatest degradation seen (Dmax) is below 50% and the DC50 was above 100 nM. At SMARCA4, the Dmax is below 50% and the DC50 was above 100 nM. For the same compound, at SMARCA2 [2], the maximal degradation (Dmax) is below 50%, the DC50 is above 100 nM and the “Selectivity in MV411” value was “C (C (10-100 fold))”.

Turning to `CC#Cc1ccc(CNC(=O)[C@@H]2C[C@@H](O)CN2C(=O)[C@@H](NC(=O)N2CC3(CC(N4CCC(c5cnc(N6CCc7[nH]c8nnc(-c9ccccc9O)cc8c7[C@H]6C)nc5)CC4)C3)C2)C(C)(C)C)c(OC)c1` [I-271], on SMARCA2 [1], the Dmax is above 90% and the DC50 was 50 to 100 nM. Besides, on SMARCA4, the Dmax is below 50% and the DC50 is above 100 nM. Further, on SMARCA2 [2], the Dmax is 70 to 90%, the DC50 lay in the range of 10 to 100 nM and the “Selectivity in MV411” value is on record as “C (C (10-100 fold))”.

For `C#Cc1ccc([C@H](C)NC(=O)[C@@H]2C[C@@H](O)CN2C(=O)C(c2cc(N3CCC(N4CCC(N5CCC(CN6CCN7c8cc(-c9ccccc9O)nnc8NC[C@H]7C6)CC5)CC4)CC3)no2)C(C)C)cc1` (stereo partly shown) [I-291], the Dmax at SMARCA2 [1], at SMARCA4 and at SMARCA2 [2] was above 90% throughout. Further, the values for the DC50 at SMARCA2 [1], on SMARCA4 and on SMARCA2 [2] were 10 to 50 nM, 10 to 100 nM and 1 to 10 nM, respectively. In addition, at SMARCA2 [2], the “Selectivity in MV411” value was “C (C (10-100 fold))”.

Regarding `C#Cc1cnc(CNC(=O)[C@@H]2C[C@@H](O)CN2C(=O)[C@@H](NC(=O)[C@H]2CC3(C2)C[C@H](N2CCC(N4CCC(N5CCN6c7cc(-c8ccccc8O)nnc7NC[C@H]6C5)CC4)CC2)C3)C(C)(C)C)c(OC)c1` (stereo partly shown) [I-331], the DC50 on SMARCA2 [1] and on SMARCA4 was above 100 nM throughout. For the same compound, on SMARCA2 [2], the “Selectivity in MV411” value is “C (C (10-100 fold))”.

For the compound `C#Cc1ccc(CNC(=O)[C@@H]2C[C@@H](O)CN2C(=O)[C@@H](NC(=O)N2CCN(CC3CCN([C@H]4CC[C@H](N5CCc6[nH]c7nnc(-c8ccccc8O)cc7c6[C@H]5C)CC4)CC3)CC2)C(C)(C)C)cc1` [I-204], on SMARCA2 [1], the Dmax fell in the range of 70 to 90% and the DC50 was above 100 nM. Moreover, on SMARCA4, the Dmax was below 50% and the DC50 is above 100 nM. On SMARCA2 [2], the Dmax is below 50%, the DC50 is above 100 nM and the “Selectivity in MV411” value is listed as “C (C (10-100 fold))”.

Consider `C#Cc1ccc(CNC(=O)[C@@H]2C[C@@H](O)CN2C(=O)[C@@H](NC(=O)N2CC3(CC(N4C[C@H]5CN(c6cnc(N7CCc8[nH]c9nnc(-c%10ccccc%10O)cc9c8[C@@H]7C)nc6)C[C@H]5C4)C3)C2)C(C)(C)C)cc1` [I-172], for which, on SMARCA2 [1], the Dmax was above 90% and the 50% degradation concentration (DC50) is above 100 nM. On SMARCA4, the Dmax fell in the range of 70 to 90% and the half-maximal degradation concentration (DC50) was above 100 nM. On SMARCA2 [2], the Dmax is 50 to 70%, the DC50 lay within 10 to 100 nM and the “Selectivity in MV411” value is given as “C (C (10-100 fold))”.

On to `C#Cc1ccc(CNC(=O)[C@@H]2C[C@@H](O)CN2C(=O)[C@@H](NC(=O)C2CCC3(CC2)CC(N2CCC(N4CC(C(=O)N5CCN6c7cc(-c8ccccc8O)nnc7NC[C@H]6C5)C4)CC2)C3)C(C)(C)C)cc1` (stereo partly shown) [I-92], for which, on SMARCA2 [1], the Dmax was above 90% and the DC50 was above 100 nM. In addition, at SMARCA4, the Dmax was in the range of 50 to 70% and the DC50 is above 100 nM. At SMARCA2 [2], the Dmax fell in the range of 70 to 90%, the DC50 is 1 to 10 nM and the “Selectivity in MV411” value was “C (C (10-100 fold))”.

For `Cc1ncsc1-c1ccc(CNC(=O)[C@@H]2C[C@@H](O)CN2C(=O)[C@@H](NC(=O)C2(F)CC2)C(C)(C)C)c(O[C@H]2CC[C@H](N3CCC(N4CCC(c5cnc(N6CCc7[nH]c8nnc(-c9ccccc9O)cc8c7[C@@H]6C)nc5)CC4)CC3)CC2)c1` (single isomer, unassigned) [I-47], the Dmax on SMARCA2 [1], on SMARCA4 and on SMARCA2 [2] was above 90% throughout. Moreover, the DC50 on SMARCA2 [1] is above 100 nM; on SMARCA4 it was 1 to 10 nM; at SMARCA2 [2], 1 to 10 nM. Besides, the “Selectivity in MV411” value on SMARCA2 [2] is reported as “D (D (<10 fold))”.

For `C#Cc1ccc(CNC(=O)[C@@H]2C[C@@H](O)CN2C(=O)[C@@H](NC(=O)N2CC3(CC(N4CCC(N5CCC(N6CCN7c8cc(-c9ccccc9O)nnc8NC[C@H]7C6)CC5)CC4)C3)C2)C(C)(C)C)cc1` [I-215], the Dmax at SMARCA2 [1] is above 90%; on SMARCA4 it was 70 to 90%; at SMARCA2 [2] it was above 90%. The DC50 at SMARCA2 [1] lay in the range of 50 to 100 nM; on SMARCA4 it was 10 to 100 nM; on SMARCA2 [2], 1 to 10 nM. In addition, the “Selectivity in MV411” value at SMARCA2 [2] was “C (C (10-100 fold))”.

For the compound `C#Cc1ccc(CNC(=O)[C@@H]2C[C@@H](O)CN2C(=O)[C@@H](NC(=O)[C@H]2CCC3(CC2)C[C@H](N2CCC(N4CCC(N5CCN6c7cc(-c8ccccc8O)nnc7NC[C@H]6C5)CC4)CC2)C3)C(C)(C)C)c(Cl)c1` (single isomer, unassigned) [I-221], the figures for the Dmax at SMARCA2 [1], on SMARCA4 and at SMARCA2 [2] were above 90%, below 50% and 50 to 70%, respectively. In addition, the DC50 is above 100 nM on SMARCA2 [1], above 100 nM at SMARCA4 and 10 to 100 nM at SMARCA2 [2]. At SMARCA2 [2], the “Selectivity in MV411” value was “C (C (10-100 fold))”.

In the case of `Cc1ncsc1-c1ccc(CNC(=O)[C@@H]2C[C@@H](O)CN2C(=O)[C@@H](NC(=O)[C@H]2CC3(C2)C[C@H](N2CCC(c4ccnc(N5CCN6c7cc(-c8ccccc8O)nnc7NC[C@@H]6C5)n4)CC2)C3)C(C)(C)C)cc1` (single isomer, unassigned) [I-3], on SMARCA2 [1], the Dmax lay within 70 to 90% and the DC50 is above 100 nM. At SMARCA4, the Dmax lay in the range of 50 to 70% and the DC50 is above 100 nM. Further, on SMARCA2 [2], the Dmax is 70 to 90%, the DC50 was in the range of 1 to 10 nM and the “Selectivity in MV411” value was “A (A (>500 fold))”.

As for `CC#Cc1ccc(CNC(=O)[C@@H]2C[C@@H](O)CN2C(=O)[C@@H](NC(=O)N2CC3(CC(N4CCC(c5cnc(N6CCc7[nH]c8nnc(-c9ccccc9O)cc8c7[C@H]6C)nc5)CC4)C3)C2)C(C)(C)C)cc1` [I-121], the Dmax was above 90% at SMARCA2 [1], below 50% at SMARCA4 and 50 to 70% at SMARCA2 [2]. Also, the DC50 was 50 to 100 nM at SMARCA2 [1], above 100 nM at SMARCA4 and 10 to 100 nM on SMARCA2 [2]. Also, the “Selectivity in MV411” value at SMARCA2 [2] was “B (B (>100-500 fold))”.
